Assay results as given in patent US8871767B2, “2-arylimidazo[1,2-B]pyridazine, 2-phenylimidazo[1,2-A]pyridine, and 2-phenylimidazo[1,2-A]pyrazine derivatives” (Hengrui (USA) Ltd., priority 2010, dated 2014).
Like-named read-outs stand apart in the source and are kept apart here.

Legend:
[1] = test system: Hedgehog pathway activation on 10T1/2/Smo#3 cells (C3H10T1/2 cells transfected with human Smoothened receptor); test: Hedgehog pathway activation on 10T1/2/Smo#3 cells measured by ALP activity; assay type: cell-based; conditions: Mus musculus, C3H 10T1/2, 10T1/2/Smo#3 cells
Method: Hedgehog conditioned media was obtained by transfecting 293H cells with the full length gene encoding human Sonic Hedgehog (hShh) inserted into the pCMV6 expression vector, which contains a neomycin selectable marker and expresses the protein of interest with a C-terminal FLAG affinity tag. After selection in G418 containing media, conditioned media from Hedgehog expressing clones were tested for the ability to activate the hedgehog-responsive GLi-luciferase reporter in the Shh Light II cell line obtained by license from John Hopkins University (Taipale J, et al. Effects of oncogenic mutations in Smoothened and Patched can be reversed by cyclopamine. Nature 406: 1005-1009, 2000).
C3H10T1/2 cells were transfected with a pCMV expression vector containing the full length gene sequence encoding the human Smoothened receptor. Pooled cells, designated 10T1/2/Smo#3, growing in G418 selection media responded to activation by 10-20% conditioned hShh media with an approximate 5-10 fold increase in alkaline phosphaste (ALP) activity over untransfected parent C3H10T1/2 cells as measured by the conversion of the free acid of 4-methylumbelliferyl phosphate to a fluorescent product.
A test compound library was screened against hShh and 500 nM SAG (a direct agonist of the Smoothened receptor) activated 10T1/2/Smo#3 cells and Shh Light II reporter cells for the ability to block Hedgehog pathway activation. Concurrently, cell viability was measured by utilizing Celltiter-Blue® (Promega, Madison Wis.) viability assay. Active compounds were defined as those that inhibited Hedgehog signaling by greater than 50% with no concurrent loss in cell viability.
Their inhibitory activity against Hedgehog pathway activation on 10T1/2/Smo#3 cells as measured by ALP activity and Shh Light II reporter cells as measured by luciferase activity is shown in Table 1 below. In Table 1, +++ stands for an IC50 value that is less than 0.3 μM, ++ between 0.3 and 3 μM, + between 3 and 30 μM.
Additional data for compounds of the invention is shown below in Table 2. Their inhibitory activities against Hedgehog pathway activation are shown as IC50 values in μM on 10T1/2/Smo#3 cells as measured by ALP activity, or on Shh Light II reporter cells as measured by luciferase activity (hShh activation).

[2] = test system: Hedgehog pathway activation (GLi-luciferase reporter) in Shh Light II reporter cells; test: Hedgehog pathway activation on Shh Light II reporter cells measured by luciferase activity; assay type: cell-based; conditions: Mus musculus, Shh Light II
Procedure, shortened: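 Shh Light II reporter cells carrying a hedgehog-responsive GLi-luciferase reporter were stimulated either with 500 nM SAG, a direct Smoothened agonist, or with conditioned media containing human Sonic Hedgehog (hShh). Test compounds were evaluated for blocking this pathway activation, quantified by luciferase activity. Cell viability was monitored in parallel with the Celltiter-Blue® assay.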

[3] = measured by ALP activity, read-out: ALP (IC50, inhibition of Hedgehog pathway activation)
[4] = hShh activation, read-out: Shh (IC50, inhibition of Hedgehog pathway activation)
[5] = hShh activation, ALP activity, read-out: 10T1/2/Smo#3 ALP activity (hShh Activation)
[6] = SAG activation (500 nM SAG), read-out: Shh Light II luciferase activity (SAG activation)
[7] = hShh activation, read-out: Shh Light II luciferase activity (hShh activation)

IC50 [1, 3] [µM]	IC50 [2, 4] [µM]	IC50 [1, 5] [µM]	IC50 [2, 6] [µM]	IC50 [2, 7] [µM]	Compound
3.69	> 10	–	–	–	COc1ccc2nc(-c3ccc(C)c(NC(=O)c4ccccc4C(F)(F)F)c3)cn2n1 [Example 99, N-(5-(6-methoxyimidazo[1,2-b]pyridazin-2-yl)-2-methylphenyl)-2-(trifluoromethyl)benzamide]
1.06	1.09	–	–	–	COc1ccc2nc(-c3ccc(C)c(NC(=O)c4cccc(C(F)(F)F)c4)c3)cn2n1 [Example 100, N-(5-(6-methoxyimidazo[1,2-b]pyridazin-2-yl)-2-methylphenyl)-3-(trifluoromethyl)benzamide]
7.01	0.89	3 to 30	3 to 30	0.3 to 3	COc1ccc2nc(-c3ccc(C)c(NC(=O)Cc4ccc(Cl)cc4)c3)cn2n1 [Example 101, 2-(4-chlorophenyl)-N-(5-(6-methoxyimidazo[1,2-b]pyridazin-2-yl)-2-methylphenyl)acetamide]
4.21	9.12	–	–	–	COc1ccc2nc(-c3ccc(C)c(NCc4ccc(F)cc4)c3)cn2n1 [Example 102, N-(4-fluorobenzyl)-5-(6-methoxyimidazo[1,2-b]pyridazin-2-yl)-2-methylaniline]
3.93	> 10	–	–	–	COc1cc(CNc2cc(-c3cn4nc(OC)ccc4n3)ccc2C)cc(OC)c1 [Example 103, N-(3,5-dimethoxybenzyl)-5-(6-methoxyimidazo[1,2-b]pyridazin-2-yl)-2-methylaniline]
> 10	> 10	3 to 30	3 to 30	3 to 30	COc1cc(CN(Cc2cc(OC)cc(OC)c2)c2cc(-c3cn4nc(OC)ccc4n3)ccc2C)cc(OC)c1 [Example 104, N,N-bis(3,5-dimethoxybenzyl)-5-(6-methoxyimidazo[1,2-b]pyridazin-2-yl)-2-methylaniline]
1.81	1.11	0.3 to 3	3 to 30	0.3 to 3	Cc1ccc(-c2cn3ncccc3n2)cc1NC(=O)C(C)(C)C [Example 105, N-(5-(imidazo[1,2-b]pyridazin-2-yl)-2-methylphenyl)pivalamide]
2.5	0.774	0.3 to 3	0.3 to 3	0.3 to 3	COc1ccc2nc(-c3cc(NC(=O)C(C)(C)C)c(C)cc3C)cn2n1 [Example 106, N-(5-(6-methoxyimidazo[1,2-b]pyridazin-2-yl)-2,4-dimethylphenyl)pivalamide]
7.27	2.77	–	–	–	Cc1cc(C)c(-c2cn3ncccc3n2)cc1NC(=O)C(C)(C)C [Example 107, N-(5-(imidazo[1,2-b]pyridazin-2-yl)-2,4-dimethylphenyl)pivalamide]
5.23	2.47	–	–	–	Cc1ccc(-c2cn3ncccc3n2)cc1NC(=O)CC(C)(C)C [Example 108, N-(5-(imidazo[1,2-b]pyridazin-2-yl)-2-methylphenyl)-3,3-dimethylbutanamide]
7	2.65	3 to 30	3 to 30	0.3 to 3	COc1ccc2nc(-c3ccc(C)c(NC(=O)C(C)(C)C)c3)c(Cl)n2n1 [Example 109, N-(5-(3-chloro-6-methoxyimidazo[1,2-b]pyridazin-2-yl)-2-methylphenyl)pivalamide]
8.04	> 10	–	–	–	COc1ccc2nc(-c3ccc(Cl)c(NC(=O)C(C)(C)C)c3)cn2n1 [Example 110, N-(2-chloro-5-(6-methoxyimidazo[1,2-b]pyridazin-2-yl)phenyl)pivalamide]
9.02	> 10	–	–	–	COc1ccc2nc(-c3ccc(Cl)c(NC(=O)CC(F)(F)F)c3)cn2n1 [Example 111, N-(2-chloro-5-(6-methoxyimidazo[1,2-b]pyridazin-2-yl)phenyl)-3,3,3-trifluoropropanamide]
9.52	> 10	–	–	–	COc1ccc2nc(-c3ccc(Cl)c(NC(=O)C4CCCC4)c3)cn2n1 [Example 112, N-(2-chloro-5-(6-methoxyimidazo[1,2-b]pyridazin-2-yl)phenyl)cyclopentanecarboxamide]
1.56	1	0.3 to 3	3 to 30	0.3 to 3	CC(C)(C)C(=O)Nc1cc(-c2cn3ncccc3n2)ccc1Cl [Example 113, N-(2-chloro-5-(imidazo[1,2-b]pyridazin-2-yl)phenyl)pivalamide]
> 10	7.67	3 to 30	3 to 30	3 to 30	COc1ccc2nc(-c3ccc(C)c(NC(=O)C(C)(C)C)c3)c(-c3ccc(F)cc3)n2n1 [Example 114, N-(5-(3-(4-fluorophenyl)-6-methoxyimidazo[1,2-b]pyridazin-2-yl)-2-methylphenyl)pivalamide]
2.81	2.87	–	–	–	COc1ccc2nc(-c3cc(NC(=O)C(C)(C)C)ccc3Cl)cn2n1 [Example 115, N-(4-chloro-3-(6-methoxyimidazo[1,2-b]pyridazin-2-yl)phenyl)pivalamide]
> 10	9.65	–	–	–	COc1ccc2nc(-c3cc(NC(=O)C4CC4)ccc3Cl)cn2n1 [Example 116, N-(4-chloro-3-(6-methoxyimidazo[1,2-b]pyridazin-2-yl)phenyl)cyclopropanecarboxamide]
6.74	2.79	3 to 30	3 to 30	3 to 30	COc1ccc2nc(-c3cc(NC(=O)CC(C)(C)C)ccc3Cl)cn2n1 [Example 117, N-(4-chloro-3-(6-methoxyimidazo[1,2-b]pyridazin-2-yl)phenyl)-3,3-dimethylbutanamide]
1.21	0.613	–	–	–	Cc1ccc(-c2cn3nc(Cl)ccc3n2)cc1NC(=O)C(C)(C)C [Example 118, N-(5-(6-chloroimidazo[1,2-b]pyridazin-2-yl)-2-methylphenyl)pivalamide]
4.54	5.65	3 to 30	3 to 30	3 to 30	COc1ccc2nc(-c3ccc(Cl)c(NC(=O)C(C)(C)C(F)(F)F)c3)cn2n1 [Example 119, N-(2-chloro-5-(6-methoxyimidazo[1,2-b]pyridazin-2-yl)phenyl)-3,3,3-trifluoro-2,2-dimethylpropanamide]
6.29	> 10	–	–	–	COc1ccc2nc(-c3ccc(Cl)c(NC(=O)CC(C)C(F)(F)F)c3)cn2n1 (stereo not shown) [Example 120, N-(2-chloro-5-(6-methoxyimidazo[1,2-b]pyridazin-2-yl)phenyl)-4,4,4-trifluoro-3-methylbutanamide]
1.87	2	0.3 to 3	3 to 30	0.3 to 3	COc1ccc2nc(-c3ccc(C)c(NC(=O)C(C)(C)C)c3)c(C)n2n1 [Example 121, N-(5-(6-methoxy-3-methylimidazo[1,2-b]pyridazin-2-yl)-2-methylphenyl)pivalamide]
1.94	3.04	–	–	–	Cc1ccc(-c2cn3nc(Cl)ccc3n2)cc1NC(=O)C(C)(C)C(F)(F)F [Example 122, N-(5-(6-chloroimidazo[1,2-b]pyridazin-2-yl)-2-methylphenyl)-3,3,3-trifluoro-2,2-dimethylpropanamide]
0.488	0.712	0.3 to 3	0.3 to 3	0.3 to 3	Cc1ccc(-c2cn3nc(N4CCN(Cc5ccc(F)cc5)CC4)ccc3n2)cc1NC(=O)C(C)(C)C [Example 123, N-(5-(6-(4-(4-fluorobenzyl)piperazin-1-yl)imidazo[1,2-b]pyridazin-2-yl)-2-methylphenyl)pivalamide]
0.604	0.895	0.3 to 3	0.3 to 3	0.3 to 3	CCCCSc1ccc2nc(-c3ccc(C)c(NC(=O)C(C)(C)C)c3)cn2n1 [Example 124, N-(5-(6-(butylthio)imidazo[1,2-b]pyridazin-2-yl)-2-methylphenyl)pivalamide]
